Measured values published in US3968100A, “Guanidio derivatives of kasugamycin and their production” (Zaidan Hojin Biseibutsu Kagaku Kenkyu Kai, priority 1972, dated 1976).
In brackets after ≈: the same amount, converted by molar mass. Like-named read-outs stand apart in the source and are kept apart here.

Columns and labels:
[1] = tested on: Bacillus subtilis ATCC 6633; test: antibacterial spectrum by the broth dilution method (MIC); type: cell-based; conditions: ATCC6633; Bacillus subtilis ATCC 6633, broth dilution; read-out: Minimum inhibitory concentration
Description: (§1) The antibacterial spectrum of the new guanidino derivatives of kasugamycin was determined by the broth dilution method and shown in Table 2 below.

Escherichia coli K-12 = test: as above; type: cell-based; conditions: K12; Escherichia coli K-12, broth dilution; read-out: Minimum inhibitory concentration
Description: as §1

Escherichia coli NIHJ = test: as above; type: cell-based; conditions: read-out: Minimum inhibitory concentration
Description: as §1

[2] = tested on: Klebsiella pneumoniae ATCC 10031; test: as above; type: cell-based; conditions: ATCC10031; Klebsiella pneumoniae ATCC 10031, broth dilution; read-out: Minimum inhibitory concentration
Description: as §1

Proteus vulgaris OX 19 = test: as above; type: cell-based; conditions: OX19; Proteus vulgaris OX 19, broth dilution; read-out: Minimum inhibitory concentration
Description: as §1

[3] = tested on: Pseudomonas fluorescence NIHJB-24; test: as above; type: cell-based
Description: as §1

Salmonella paratyphi A = test: as above; type: cell-based; conditions: Salmonella enterica, read-out: Minimum inhibitory concentration
Description: as §1

Shigella sonnei 191-66 = test: as above; type: cell-based; conditions: 19166; Shigella sonnei 191-66, broth dilution; read-out: Minimum inhibitory concentration
Description: as §1

[4] = tested on: Staphylococcus aureus 6538P; test: as above; type: cell-based; conditions: read-out: Minimum inhibitory concentration
Description: as §1

[5] = tested on: Pseudomonas aeruginosa No. 12; test: protection test against infection in mice of Pseudomonas aeruginosa; type: in vivo, mice (dd strain) infected with Pseudomonas aeruginosa No. 12; conditions: for ED50: Pseudomonas aeruginosa, NO.12, ip, read-out: curative dose (CD50)
Description: The inoculum size of Pesudomonas aeruginosa No.12, which was 10 times of LD50 (3.1 × 10^8 cells/ml, 0.25 ml/mouse), was inoculated intraperitoneally to dd strain of mice (19-21 g body weight), and the treatment with the aforesaid kasugamycin-KG-8 was intraperitoneally injected at 0 and 6 hours after the infection.

[6] = tested on: Pseudomonas fluorescens NIHJ B-254; test: activity of eluted fractions against test organism; type: cell-based; conditions: purified white powder
Description: The isourea derivative dihydrochloride of kasugamycin (500 mg) prepared in Example 2 was dissolved into 10% ethylenediamine in methanol (w/w). The solution was allowed to stand at room temperature for 24 hours, diluted with 80 ml of isopropanol and concentrated to one-half volume under reduced pressure. The solid deposited by concentration was filtered, washed with ethyl ether and dried to give 457 mg of a crude guanidino derivative of kasugamycin as a white powder. The crude powder was dissolved in 4.5 ml of water and adsorbed on a column containing 12 ml of a cation-exchange resin Amberlite IRC-50(NH4 -type). The column was washed with water and followed with 0.3N NH4 OH, and developed with 0.3N H2 SO4. The activities of each eluted fraction were determined using Pseudomonas fluorescens NIHJ B-254 as a test organism. […] And the product formed crystals as the salt of p-hydroxyazobenzene-p'-sulfonic acid.

[7] = acute toxicity to mice injected intravenously; type: in vivo; conditions: mouse, in vivo, iv
Excerpt: (§2) The process of Example 3 was repeated using propylenediamine and butylenediamine, respectively in stead of the ethylenediamine. There were obtained 1D-3-O-{2-amino-4-[(2-aminopropyl)-guanidinol]-2,3,4,6-tetradeoxy-α- D-arabino-hexopyranosyl}-chiro-inositol and 1D-3-O-{2-amino-4-[(2-aminobutyl)-guanidinol]-2,3,4,6-tetradeoxy-α-D-arabino-hexopyranosyl]-chiro-inositol in yields of 31.2% and24.6%, respectively.

swine = test: growth promoting effect on swine; type: in vivo; conditions: pigs, 10 g/ton in ration, 7 weeks
Excerpt: Growth promoting effect of kasugamycin-KG-8 on swine is described below. Kasugamycin-KG-8 was mixed uniformly with ration and administered to pigs to examine its effect on growth promotion and improvement of feed utilization. Fourty-eight young pigs of 1 month old were assigned to two lots of […] pigs each and fed for 7 weeks. Lot 1 (Control): Supplied only with basal ration. Lot 2: Supplied with basal ration + kasugamycin-KG-8 10 g/ton. As the basal ration, one of standard composition was used. Swine raising was managed according to usual method. Each lot of […] pigs were fed in a concrete pen. Ration and drinking water were supplied ad libitum. The index of weight gain indicates beneficial effect of kasugamycin-KG-8 on swing growth promotion.

chicks = test: growth promoting effect on chicks; type: in vivo, chicks of broiler type (White Rock × White Cornish); set-up: Weight gain: unit not given here; conditions: 10 g/ton in ration; for Index of weight gain: control = 100
Description: Growth promoting effect of kasugamycin-KG-8 on chicks is tested below. Kasugamycin-KG-8 was mixed uniformly with ration and administered to chicks to examine its effect on growth promotion and improvement of feed utilization. Eighty chicks of broiler type (White Rock × White Cornish) were assigned to two lots of 40 chicks each and for 8 weeks. Lot 1 (Control): Supplied only with basal ration. Lot 2: Supplied with basal ration + kasugamycin-KG-8 10 g/ton. As the basal ration was used one of standard composition. Chick rearing was managed according to the usual method. Ration and drinking water were supplied ad libitum. Tabel 5 indicates beneficial effect of kasugamycin-KG-8 on chick growth promotion.

solubility = type: physicochemical
mice = test: acute toxicity to mice injected intravenously; type: in vivo; conditions: 350 mg/kg intravenously, five mice
Excerpt: as §2

[8] = NIHJB24, Pseudomonas fluorescence NIHJB-24, broth dilution, read-out: Minimum inhibitory concentration

SMILES: C[C@H]1O[C@H](O[C@H]2[C@H](O)[C@@H](O)[C@@H](O)[C@H](O)[C@@H]2O)[C@@H](N)C[C@@H]1NC(=N)C(=O)O [Kasugamycin]
- MIC [1]: > 100 µg/mL
- MIC (Escherichia coli K-12): 100 µg/mL (≈ 264 µM)
- MIC (Escherichia coli NIHJ): 100 µg/mL (≈ 264 µM)
- MIC [2]: 50 µg/mL (≈ 132 µM)
- MIC (Proteus vulgaris OX 19): 100 µg/mL (≈ 264 µM)
- MIC [3, 8]: 3.13 µg/mL (≈ 8.25 µM)
- MIC (Salmonella paratyphi A): 50 µg/mL (≈ 132 µM)
- MIC (Shigella sonnei 191-66): > 100 µg/mL
- MIC [4]: 50 µg/mL (≈ 132 µM)
- ED50 [5]: 35.5 mg/kg

SMILES: C[C@H]1O[C@H](O[C@H]2[C@H](O)[C@@H](O)[C@@H](O)[C@H](O)[C@@H]2O)[C@@H](N)C[C@@H]1NC(=N)NCCN [kasugamycin-KG-8, 1D-3-O-{2-amino-4-[(2-aminoethyl)-guanidino]-2,3,4,6-tetradeoxy-α-D-arabino-hexopyranosyl}-chiro-inositol]
- MIC [1]: 0.39 µg/mL (≈ 0.991 µM)
- MIC (Escherichia coli K-12): 0.39 µg/mL (≈ 0.991 µM)
- MIC (Escherichia coli NIHJ): 0.78 µg/mL (≈ 1.98 µM)
- MIC [2]: 0.1 µg/mL (≈ 0.254 µM)
- MIC (Proteus vulgaris OX 19): 0.78 µg/mL (≈ 1.98 µM)
- MIC ([3]; Pseudomonas, NIHJB24, read-out: Minimum inhibitory concentration): 1.56 µg/mL (≈ 3.97 µM)
- MIC (Salmonella paratyphi A): 0.2 µg/mL (≈ 0.508 µM)
- MIC (Shigella sonnei 191-66): 1.56 µg/mL (≈ 3.97 µM)
- MIC [4]: 0.78 µg/mL (≈ 1.98 µM)
- activity relative to kasugamycin [6]: three times active than kasugamycin
- Number survived/Number infected ([5]; 0.031 mg/mouse at one time, day 0 after infection): 0/4
- Number survived/Number infected ([5]; 0.031 mg/mouse at one time, day 1 after infection): 4/4
- Number survived/Number infected ([5]; 0.031 mg/mouse at one time, day 7 after infection): 4/4
- Number survived/Number infected ([5]; 0.063 mg/mouse at one time, day 0 after infection): 0/4
- Number survived/Number infected ([5]; 0.063 mg/mouse at one time, day 1 after infection): 1/4
- Number survived/Number infected ([5]; 0.063 mg/mouse at one time, day 2 after infection): 2/4
- Number survived/Number infected ([5]; 0.063 mg/mouse at one time, day 7 after infection): 2/4
- Number survived/Number infected ([5]; 0.125 mg/mouse at one time, day 0 after infection): 0/4
- Number survived/Number infected ([5]; 0.125 mg/mouse at one time, day 3 after infection): 1/4
- Number survived/Number infected ([5]; 0.125 mg/mouse at one time, day 7 after infection): 1/4
- Number survived/Number infected ([5]; 0.25 mg/mouse at one time, day 0 after infection): 0/4
- Number survived/Number infected ([5]; 0.25 mg/mouse at one time, day 7 after infection): 0/4
- Number survived/Number infected ([5]; 0.5 mg/mouse at one time, day 0 after infection): 0/4
- Number survived/Number infected ([5]; 0.5 mg/mouse at one time, day 7 after infection): 0/4
- Number survived/Number infected ([5]; 1.0 mg/mouse at one time, day 0 after infection): 0/4
- Number survived/Number infected ([5]; 1.0 mg/mouse at one time, day 7 after infection): 0/4
- Number survived/Number infected ([5]; 2.0 mg/mouse at one time, day 0 after infection): 0/4
- Number survived/Number infected ([5]; 2.0 mg/mouse at one time, day 7 after infection): 0/4
- ED50 ([5]; mice, intraperitoneal at 0 and 6 hours after infection): 3.13 mg/kg
- LD50 [7]: 380 mg/kg
- Feed conversion (swine; control 3.05): 2.94
- Weight gain (swine; control 8.20): 9.09 kg
- Index of weight gain (swine; control = 100): 110.9
- Weight gain (chicks; grower period for 4 weeks, control 871.8): 957.8
- Index of weight gain (chicks; grower period for 4 weeks): 109.9
- Feed conversion (chicks; grower period, control 3.65): 3.56
- Weight gain (chicks; starter period of 4 weeks, control 458.4): 496.2
- Index of weight gain (chicks; starter period of 4 weeks): 108.2
- Feed conversion (chicks; starter period, control 2.15): 2.15
- Weight gain (chicks; total period through 8 weeks, control 1330.2): 1454.0
- Index of weight gain (chicks; total period through 8 weeks): 109.3
- Feed conversion (chicks; total period, control 3.12): 3.07
- solubility (solubility; other organic solvents): scarcely soluble or insoluble in other organic solvents
- solubility (solubility; water, dimethylformamide and low alcohols): soluble in water, dimethylformamide and low alcohols

SMILES: C[C@H]1O[C@H](O[C@H]2[C@H](O)[C@@H](O)[C@@H](O)[C@H](O)[C@@H]2O)[C@@H](N)C[C@@H]1NC(=N)NCCCCN [Compound 4]
- MIC [1]: 0.78 µg/mL (≈ 1.85 µM)
- MIC (Escherichia coli K-12): 1.56 µg/mL (≈ 3.7 µM)
- MIC (Escherichia coli NIHJ): 12.5 µg/mL (≈ 29.7 µM)
- MIC [2]: 1.56 µg/mL (≈ 3.7 µM)
- MIC (Proteus vulgaris OX 19): 1.56 µg/mL (≈ 3.7 µM)
- MIC [3, 8]: 3.13 µg/mL (≈ 7.43 µM)
- MIC (Salmonella paratyphi A): 0.78 µg/mL (≈ 1.85 µM)
- MIC (Shigella sonnei 191-66): 6.25 µg/mL (≈ 14.8 µM)
- MIC [4]: 0.2 µg/mL (≈ 0.475 µM)

SMILES: C[C@H]1O[C@H](O[C@H]2[C@H](O)[C@@H](O)[C@@H](O)[C@H](O)[C@@H]2O)[C@@H](N)C[C@@H]1NC(=N)NCCCCN [Example 5, 1D-3-O-{2-amino-4-[(2-aminobutyl)-guanidinol]-2,3,4,6-tetradeoxy-α-D-arabino-hexopyranosyl]-chiro-inositol]
- deaths after intravenous injection (mice): one of them was dead

SMILES: CC(N)CNC(=N)NC1CC(N)C(OC2C(O)C(O)C(O)C(O)C2O)OC1C [Example 4, 1D-3-O-{2-amino-4-[(2-aminopropyl)-guanidinol]-2,3,4,6-tetradeoxy-α-D-arabino-hexopyranosyl}-chiro-inositol]
- deaths after intravenous injection (mice): none of them was dead

SMILES: C[C@H]1O[C@H](O[C@H]2[C@H](O)[C@@H](O)[C@@H](O)[C@H](O)[C@@H]2O)[C@@H](N)C[C@@H]1NC(=N)NCCCN [R1 =--(CH2)3 NH2, R2 =H]
- MIC (Escherichia coli NIHJ): 0.39 µg/mL (≈ 0.957 µM)
- MIC [2]: 0.2 µg/mL (≈ 0.491 µM)

SMILES: C[C@H]1O[C@H](O[C@H]2[C@H](O)[C@@H](O)[C@@H](O)[C@H](O)[C@@H]2O)[C@@H](N)C[C@@H]1NC(=N)NCCS(=O)(=O)O [Compound 8]
- MIC [1]: 100 µg/mL (≈ 218 µM)
- MIC (Escherichia coli K-12): > 100 µg/mL
- MIC (Escherichia coli NIHJ): > 100 µg/mL
- MIC [2]: > 100 µg/mL
- MIC (Proteus vulgaris OX 19): > 100 µg/mL
- MIC [3, 8]: 50 µg/mL (≈ 109 µM)
- MIC (Salmonella paratyphi A): 50 µg/mL (≈ 109 µM)
- MIC (Shigella sonnei 191-66): > 100 µg/mL
- MIC [4]: 12.5 µg/mL (≈ 27.3 µM)

SMILES: CNCCN(C)C(=N)N[C@H]1C[C@H](N)[C@@H](O[C@H]2[C@H](O)[C@@H](O)[C@@H](O)[C@H](O)[C@@H]2O)O[C@@H]1C [Compound 3]
- MIC [1]: 25 µg/mL (≈ 59.3 µM)
- MIC (Escherichia coli K-12): 100 µg/mL (≈ 237 µM)
- MIC (Escherichia coli NIHJ): 100 µg/mL (≈ 237 µM)
- MIC [2]: 100 µg/mL (≈ 237 µM)
- MIC (Proteus vulgaris OX 19): 50 µg/mL (≈ 119 µM)
- MIC [3, 8]: 50 µg/mL (≈ 119 µM)
- MIC (Salmonella paratyphi A): 50 µg/mL (≈ 119 µM)
- MIC (Shigella sonnei 191-66): 100 µg/mL (≈ 237 µM)
- MIC [4]: 50 µg/mL (≈ 119 µM)
